Experiments:
MMP7 = target: T1, MMP7 (Homo sapiens, UniProt P09237); experiment: FRET substrate cleavage by recombinant MMP, inhibition by activity-based probe; assay type: biochemical; design: The recombinant catalytic domains of human MMPs 7 and 9 were purchased from Enzo Life Sciences, and of MMP 12 from Anaspec; purchased Enzo Life Sciences; settings: FRET substrate PEPDAB008 10 μM, read-out: IC50, inhibition of substrate cleavage of active MMP
T1 sequence (P09237 95-267): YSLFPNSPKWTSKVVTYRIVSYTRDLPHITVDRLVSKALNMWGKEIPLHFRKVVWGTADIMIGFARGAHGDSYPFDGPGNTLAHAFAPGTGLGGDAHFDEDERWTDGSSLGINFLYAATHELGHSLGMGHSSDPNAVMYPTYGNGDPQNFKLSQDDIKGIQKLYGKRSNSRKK
Description: (§1) The binding of an activity-based probe, e.g., HxBP-Bt, to the active site of an MMP (as shown in FIG. 1A) would effectively reduce (or inhibit) the ability of such MMP to cleave its substrate. […] This correlation should also provide an IC50 value to measure the sensitivity/potency of the MAMBI system to bind, and thereby quantify, active MMPs. […] Fluorescence resonance energy transfer (FRET) technique is used to determine if a substrate is cleaved by pre-labeling two parts of a substrate molecule with a donor chromophore and an acceptor chromophore, respectively, and measuring the energy transfer efficiency from the donor to the acceptor chromophore to determine if two fluorophores are within a certain distance of each other, i.e. the substrate is intact and uncleaved. […] The fluorescence was monitored by plate reader. In general, readings measured fluorescence every 20 minutes for roughly five hours and the reported rate of increase in fluorescence was calculated from fitting a linear portion of this increase including at least 4 data points and subtracting the average increase in background, protease-free conditions. […] Reaction velocities were calculated from linear reaction periods from raw fluorescence value time courses. […] Relative rates of FRET substrate cleavage among samples with the addition of HxBP-Bt were quantified and compared with the rates without HxBP-Bt. […]

MMP9 = MMP9 (Homo sapiens, UniProt P14780); experiment: as above; assay type: biochemical; design: The recombinant catalytic domains of human MMPs 7 and 9 were purchased from Enzo Life Sciences, and of MMP 12 from Anaspec; purchased Enzo Life Sciences; settings: FRET substrate PEPDAB011 10 μM, read-out: IC50, inhibition of substrate cleavage of active MMP
Description: as §1

MMP8 = MMP8 (Homo sapiens, UniProt P22894); experiment: as above; assay type: biochemical; settings: FRET substrate PEPDAB008 10 μM, read-out: IC50, inhibition of substrate cleavage of active MMP
Description: (§2) The binding of an activity-based probe, e.g., HxBP-Bt, to the active site of an MMP (as shown in FIG. 1A) would effectively reduce (or inhibit) the ability of such MMP to cleave its substrate. […] This correlation should also provide an IC50 value to measure the sensitivity/potency of the MAMBI system to bind, and thereby quantify, active MMPs. […] Fluorescence resonance energy transfer (FRET) technique is used to determine if a substrate is cleaved by pre-labeling two parts of a substrate molecule with a donor chromophore and an acceptor chromophore, respectively, and measuring the energy transfer efficiency from the donor to the acceptor chromophore to determine if two fluorophores are within a certain distance of each other, i.e. the substrate is intact and uncleaved. Here, HxBP-Bt bound MMP samples were mixed with chromophore-labeled substrate peptides in 384-well OptiPlates® at 37° C. using timelapse fluorimetry in the Spectromax® M3 and M2e fluorimeters (Molecular Devices). The fluorescence was monitored by plate reader. In general, readings measured fluorescence every 20 minutes for roughly five hours and the reported rate of increase in fluorescence was calculated from fitting a linear portion of this increase including at least 4 data points and subtracting the average increase in background, protease-free conditions. […] Reaction velocities were calculated from linear reaction periods from raw fluorescence value time courses. […] Relative rates of FRET substrate cleavage among samples with the addition of HxBP-Bt were quantified and compared with the rates without HxBP-Bt. Activities of recombinant MMPs 1, 7, 8, 12 and 13, in the presence or absence of HxBP-Bt probe, were characterized with […]008 (Dabcyl-[…]); MMPs 2 and 9 with […]011 (Dabcyl-[…]) and MMPs 3 and 10 with […]052 (Dabcyl-[…]). […] These IC50 values were used to estimate binding off-rates in the computational model. IC50 of the inhibitor was calculated by fitting the resulting dose-dependent data with the PRISM software (GraphPad, USA)

MMP13 = MMP13 (Homo sapiens, UniProt P45452); experiment: as above; assay type: biochemical; settings: FRET substrate PEPDAB008 10 μM, read-out: IC50, inhibition of substrate cleavage of active MMP
Description: as §2

MMP10 = MMP10 (Homo sapiens, UniProt P09238); experiment: as above; assay type: biochemical; settings: FRET substrate PEPDAB052 10 μM, read-out: IC50, inhibition of substrate cleavage of active MMP
Description: as §2

[1] = system: aggregate metalloprotease activity of conditioned medium; experiment: FRET substrate cleavage in conditioned media of cell cultures; assay type: biochemical, human
Protocol: Eight conditioned mediums were assayed, each tested in two complete biological replicates (n=2), from these cell cultures: four endometrial related cell populations including (1) primary endometrial stromal cells (pESC), (2) telomerase-immortalized human endometrial stromal cells (tHESC) (Krikun et al., Endocrinology, 145(5):2291-6 (2004)), (3) an adenocarcinoma endometrial epithelial cell line, Ishikawa, and (4) an epithelial line derived from an endometriosis lesion, 12z; three canonical cancer cell lines including (5) A549, (6) […], and (7) HT1080; as well as (8) human telomerase reverse transcriptase (hTERT) immortalized mesenchymal stem cell line (MSC).
Conditioned supernatant was prepared: collected at 12 h, spun down at 200 g for 5 min to remove debris, and immediately flash-frozen. For FRET-substrate assays involving this supernatant, final reactions were composed of a 2:1:1 mixture of […] substrate diluted from 5 mMDMSO stock into phosphate buffered saline, 4 nM active MMP7 diluted in ‘MMP buffer’, and thawed supernatant.
Validation of HxBP-Bt probe binding to the active sites of proteases in conditioned media was performed based on the FRET-based study as described in Example 1, without the addition of MMP capture beads. […]

Sequence of MMP8 (P22894 101-467, species assumed): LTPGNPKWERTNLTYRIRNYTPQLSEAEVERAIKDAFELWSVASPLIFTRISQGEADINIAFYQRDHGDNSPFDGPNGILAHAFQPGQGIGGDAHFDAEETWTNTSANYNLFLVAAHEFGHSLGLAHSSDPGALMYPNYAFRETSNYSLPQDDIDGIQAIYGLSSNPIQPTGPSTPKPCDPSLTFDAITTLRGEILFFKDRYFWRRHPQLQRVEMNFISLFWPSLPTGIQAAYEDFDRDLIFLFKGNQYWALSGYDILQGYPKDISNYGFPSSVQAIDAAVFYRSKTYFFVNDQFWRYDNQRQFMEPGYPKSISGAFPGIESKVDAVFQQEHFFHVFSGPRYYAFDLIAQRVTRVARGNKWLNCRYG
Sequence of MMP9 (P14780 107-449 limits assumed): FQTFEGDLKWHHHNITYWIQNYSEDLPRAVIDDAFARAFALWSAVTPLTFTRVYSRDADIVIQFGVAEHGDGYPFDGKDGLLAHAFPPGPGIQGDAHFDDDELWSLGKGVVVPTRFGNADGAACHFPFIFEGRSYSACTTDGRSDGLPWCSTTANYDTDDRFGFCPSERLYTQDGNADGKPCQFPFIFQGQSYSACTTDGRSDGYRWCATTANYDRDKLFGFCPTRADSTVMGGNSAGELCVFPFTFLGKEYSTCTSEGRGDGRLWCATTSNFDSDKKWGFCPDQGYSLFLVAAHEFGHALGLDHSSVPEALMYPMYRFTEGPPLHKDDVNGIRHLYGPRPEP
Sequence of MMP10 (P09238 99-476): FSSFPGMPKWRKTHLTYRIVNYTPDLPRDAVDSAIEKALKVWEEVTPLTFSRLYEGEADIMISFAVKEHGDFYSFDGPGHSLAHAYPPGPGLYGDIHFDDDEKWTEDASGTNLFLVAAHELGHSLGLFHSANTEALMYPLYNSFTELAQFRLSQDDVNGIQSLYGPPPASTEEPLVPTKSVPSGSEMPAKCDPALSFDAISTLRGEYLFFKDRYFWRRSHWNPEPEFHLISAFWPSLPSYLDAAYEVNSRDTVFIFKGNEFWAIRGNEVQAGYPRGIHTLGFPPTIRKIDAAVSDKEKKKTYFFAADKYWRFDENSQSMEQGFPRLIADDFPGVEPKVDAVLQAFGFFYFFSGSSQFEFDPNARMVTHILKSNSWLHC

IC50 (MMP7): 9.2 nM
IC50 (MMP9): 2.7 nM
IC50 (MMP8): 2.4 nM
IC50 (MMP13): 2.3 nM
IC50 (MMP10): 29 nM
Structure (SMILES): CC(C)CC(C(=O)NC(Cc1ccc(C(=O)c2ccccc2)cc1)C(=O)NCCOCCOCCOCC(=O)NCC(C)(C)SSC(C)(C)CNC(=O)CCCCC1SCC2NC(=O)NC21)C(O)C(=O)NO (stereo not shown) [HxBP-Bt, biotin-tagged hydroxamate benzophenone (HxBP-Bt) probe]
effect on substrate cleavage (bulk protease activity) ([1]; eight conditioned media normalized to 1000 μg/mL, 500 nM HxBP-Bt): greatly deceased the substrate cleavage ability
effect on substrate cleavage (bulk protease activity) ([1]; eight conditioned media, 1500 nM HxBP-Bt, in some cases): further decreased the protease activities

Reference: patent US11408885B2, “Compositions and multiplex assays for characterizing active proteases and their inhibitors” (Massachusetts Institute of Technology, priority 2017, dated 2022)
